Laboratory results as given in patent publication US7442796B2, “Compounds for the treatment of metabolic disorders” (Wellstat Therapeutics Corporation, priority 2003, dated 2008).

System: db/db mice
Experiment: Antidiabetic effects in db/db mice (serum glucose and triglycerides after daily oral dosing)
Assay type: in vivo
Conditions: male db/db mice, 17 days
Description: C57BL/Ksola (db/db) mice have a defect in leptin signaling, leading to hyperphagia, obesity and diabetes. Moreover, unlike ob/ob mice on a C57BL/6J background, db/db mice on a C57BLKS background undergo failure of their insulin-producing pancreatic islet cells, resulting in progression from hyperinsulinemia (associated with peripheral insulin resistance) to hypoinsulinemic diabetes.
Male obese (db/db homozygote) C57BL/Ksola mice approximately 8 weeks of age, were obtained from Jackson Labs (Bar Harbor, Me.) and sorted into groups of 7 animals each animals such that the body weights (40-45 g) and serum glucose levels (≧300 mg/dl in fed state) were similar between groups. A minimum of 7 days was allowed for adaptation after arrival. All animals were maintained under controlled temperature (23° C.), relative humidity (50±5%) and light (7:00-19:00), and allowed free access to standard chow (Formulab Diet 5008, Quality Lab Products, Elkridge, Md.) and water.
Treatment cohorts were given daily oral doses of vehicle (1% hydroxypropylmethylcellulose), Compounds BI, CF, CG, CQ or phenylacetate for 17 days. At the end of the treatment period, blood samples were collected and serum glucose and triglycerides were measured.

SMILES | Glucose mg/dL (±SEM) (60 mg/kg daily oral) [mg/dL] | Triglycerides (60 mg/kg daily oral) [mg/dL] | Glucose mg/dL (±SEM) (100 mg/kg daily oral) [mg/dL] | Triglycerides (100 mg/kg daily oral) [mg/dL] | Glucose mg/dL (±SEM) (300 mg/kg daily oral) [mg/dL] | Triglycerides (300 mg/kg daily oral) [mg/dL]
Cc1cccc(C)c1COc1cccc(C(=O)C(=O)O)c1 [CQ, [3-(2,6-Dimethylbenzyloxy)-phenyl]-oxoacetic acid] | 691 ± 37 | 175 ± 25 | 786 ± 65 | 125 ± 10 | – | –
O=C(O)Cc1ccccc1 [Phenylacetate, reference compound] | – | – | – | – | 661 ± 64 | 171 ± 33
